# In patent publication US8629100B2, “Method of inhibiting clostridium difficile by administration of oritavancin” (The Medicines Company, priority 2007, dated 2014):
# Key:
# [1] = test system: C. difficile PCR ribotype 027; assay: In vitro triple-stage chemostat human gut model of clindamycin-induced CDI; conditions: for Decline of cytotoxin titres during instillation: 7 days; for Recrudescence of C. difficile spore germination, proliferation and cytotoxin production: after concentrations declined below limits of detection
# Excerpt: A single isolate of C. difficile PCR ribotype 027 was investigated. This isolate was a clinical strain recovered during an epidemic of CDI at the Maine Medical Centre (Portland, USA) in 2005. It was supplied courtesy of Dr. Rob Owens and ribotyped at the Anaerobe Reference Laboratory (Cardiff, Wales, UK) by Dr Jon Brazier.
# The gut model was designed to allow the study of the intestinal microflora in the low pH, carbohydrate-excess conditions of the proximal colon and the carbohydrate-depleted, non-acidic conditions of the distal colon (Macfarlane et al., Microb Ecol 1998; 35: 180-7). Microbiological and physicochemical measurements within the gut model vessels were validated against the intestinal contents of sudden death victims (Macfarlane et al., Microb Ecol 1998; 35: 180-7). Each gut model consists of three fermentation vessels connected in a weir cascade system top-fed with growth medium at a controlled rate (D=0.015 h^−1). Vessels were sparged with oxygen-free nitrogen to ensure anaerobiosis, heated via a water-jacketed system (37° C.) and maintained at specific pH using fermenter controller units (Biosolo 3, Brighton Systems, UK) delivering 0.5 M HCl/NaOH. Vessel 1 (280 mL) was operated at pH 5.5 and high substrate availability, thus reflecting the conditions within the proximal colon, while vessels 2 and 3 (300 mL) were operated at pH 6.2 and 6.8, respectively, with low substrate availability, thus reflecting the conditions within the distal colon. The gut model was primed with faecal slurry ˜10% (w/v) and allowed to equilibrate with respect to bacterial populations for 14 days.
# Faecal samples were collected from five healthy elderly (>65 years) volunteers and immediately transported to the laboratory under anaerobic conditions (GasPak, Oxoid, Basingstoke, UK). […] C. difficile-negative faeces were pooled and a coarse-filtered slurry (˜10% w/v) in sterile pre-reduced phosphate-buffered saline was prepared. Vessels of the gut models were filled to approximately two-thirds volume, and the growth medium pumps were started.
# Major culturable components of the indigenous gut microflora and C. difficile were enumerated by viable counting (log10 cfu/mL) on selective and non-selective agars as reported previously (Freeman et al., J Antimicrob Chemother 2005; 56: 717-25). Bacterial groups enumerated were: total facultative anaerobes, facultatively anaerobic lactose fermenters, total anaerobes, bifidobacteria, Bacteroides fragilis group, total clostridia, lactobacilli, enterococci, total C. difficile and C. difficile spores. C. difficile cytotoxin production was quantified using a Vero cell cytotoxicity assay as described previously (Freeman et al., J Antimicrob Chemother 2003; 52: 96-102). Cytotoxin titres were expressed in log10 relative units (RU). Only C. difficile total bacterial counts, spore counts and cytotoxin titres were enumerated in vessel 1 of the gut model.
# The use of the gut model to evaluate therapeutic interventions for CDI has been described previously (Freeman et al., J Antimicrob Chemother 2007; 60: 83-91; Freeman et al., J Antimicrob Chemother 2005; 56: 717-25). Briefly, following inoculation of each gut model with the faecal slurry, no further interventions were made for 13 days (period A). During period A, bacterial populations were enumerated every 2 days. Next (day 14), vessel 1 of each gut model was inoculated with a single inoculum of ˜10^7 cfu C. difficile PCR ribotype 027 spores (Freeman et al., J Antimicrob Chemother 2003; 52: 96-102), with no further interventions for 7 days (period B). From this point onwards, bacterial populations were enumerated daily.
# [2] = test system: Staphylococcus aureus NCTC 6571; assay: Growth on antibiotic-exposed cellulose acetate filters (Example 3C); type: cell-based; conditions: overnight culture
# Experimental: One mL solutions (containing no C. difficile spores) were processed as in Experiment 2B and filters placed onto Braziers CCEY agar. Onto the filters were inoculated 2×20 μL of:
# c) Staphylococcus aureus NCTC 6571 (Oxford strain, overnight culture).
# Growth/no growth was recorded following anaerobic incubation.
# [3] = test system: C. difficile ATCC 43255; assay: Hamster model of CDI, intravenous administration; type: in vivo, Syrian golden hamsters
# Experimental: C. difficile ATCC 43255 was used in all experiments. This strain was originally isolated from an abdominal wound and is toxin A+/B+ and binary toxin negative. C. difficile spores were prepared for the infection by incubating C. difficile cells on blood agar plate at 37° C. anaerobically for 7 days, to promote spore formation. The C. difficile colonies were resuspended in phosphate buffered saline (PBS) and mixed with an equal volume of 100% ethanol for one hour. The spores were centrifuged, resuspended in PBS, aliquoted, and frozen at −20° C. Spores were diluted in PBS for oral inoculation into hamsters.
# All studies were performed in accordance with protocols that were approved by the Institutional Animal Care and Use Committee. […] One day later (Day 0), animals were infected orally with 10^5 C. difficile spores by oral gavage.
# Starting on Day 1 post-infection, either vehicle, vancomycin (50 mg/kg), or oritavancin formulated in 10% hydroxypropyl β-cyclodextrin (HPCD) (50 mg/kg) was administered intravenously […] to the hamsters (n=10/group). A total of either 1, 2 or 3 doses of oritavancin was injected on Days 1, 3, and 5, respectively (q2d).
# The infected hamsters received the first dose of antibiotic on day 1 and treatment was repeated each 2 days for up to five days; an untreated group was used as control.
# [4] = test system: C. difficile spores; assay: Agar-based culture: spore recovery after antimicrobial exposure; type: cell-based; conditions: 350 mg/L, 1 min and 30 min, filtered onto CAF, 48 h
# Experimental: Antimicrobial-spore solutions were mixed, diluted (to sub-MIC) in sterile de-ionised water, filtered onto cellulose acetate filters (CAF, 0.45 μm) and washed. CAF were transferred onto Brazier's agar (pH 7)+5 mg/L lysozyme, and following anaerobic incubation (37° C., 48 h), % C. difficile spores (vs. control) were determined.
# [5] = test system: Oxford S. aureus; assay: Antimicrobial-spore binding: washed exposed spores on S. aureus lawn (Example 3D); type: cell-based, Staphylococcus aureus; conditions: spores suspended in 350 mg/L; after 0, 1, 2, 4, 5, 6, 9 and 10 washes
# Experimental: A further potential explanation for the failure to recover oritavancin-treated C. difficile spores from the above experiments (in addition to presence of the drug in cellulose acetate filters) is that oritavancin may be able to bind C. difficile spores and directly damage spores, or inhibit spore germination and/or outgrowth. A simple experiment was conducted in order to assess antimicrobial-spore binding:
# Two solutions were prepared:
# 1) C. difficile spores (PCR ribotype 001, control), and
# 2) C. difficile spores suspended in 350 mg/L oritavancin (diluent: Tween-80-H2O).
# Fresh blood agar was inoculated with a lawn of the Oxford S. aureus. In one replicate, C. difficile spores were centrifuged (16000 g, 5 min), the supernatants removed and pellets re-suspended in 500 μL of Tween-80-H2O. 10 μL of the re-suspended spore suspension was inoculated onto the surface S. aureus lawn.
# In another replicate, C. difficile spore suspensions were washed a total of 10 times using this procedure and inoculated onto the surface of the S. aureus lawn.
# In both replicates agar was incubated aerobically at 37° C. overnight, and then the presence or absence of zones of inhibition were recorded.
# [6] = three intravenous doses 50 mg/kg q2d (Days 1, 3, 5)
# [7] = day 2 of instillation (64 mg/L two times daily), vessel 3
smiles,measurement,setting,value
CN[C@H](CC(C)C)C(=O)N[C@H]1C(=O)N[C@@H](CC(N)=O)C(=O)N[C@H]2C(=O)N[C@H]3C(=O)N[C@H](C(=O)N[C@H](C(=O)O)c4cc(O)cc(O)c4-c4cc3ccc4O)[C@H](O)c3ccc(c(Cl)c3)Oc3cc2cc(c3O[C@@H]2O[C@H](CO)[C@@H](O)[C@H](O)[C@H]2O[C@H]2C[C@](C)(N)[C@H](O)[C@H](C)O2)Oc2ccc(cc2Cl)[C@H]1O [vancomycin],"Time C. difficile remained as spores before recurrent germination, proliferation and cytotoxin production","[1]; after cessation of instillation, vessel 2",12 days
same,"Time C. difficile remained as spores before recurrent germination, proliferation and cytotoxin production","[1]; after cessation of instillation, vessel 3",13 days
same,Effect on C. difficile spore counts,"[1]; during instillation, period E",unaffected
same,Decline of cytotoxin titres during instillation,[1]; period E,3 RU
same,C. difficile total counts by the end of the experiment,[1]; period F,~6 login cfu/mL
same,Cytotoxin titres by the end of the experiment,[1]; period F,5 RU
same,"Recrudescence of C. difficile spore germination, proliferation and cytotoxin production",[1]; period F,Recrudescence
same,Growth of S. aureus NCTC 6571 on filters through which antibiotic had been filtered,[2],grew
same,Proportional survival rate on Day 5,[3]; 50 mg/kg q2d intravenous,30%
same,Treated animals that died between the second and third injections (Days 3 and 5),[3]; 50 mg/kg q2d intravenous,70%
same,Survival prolonged compared to untreated animals,[3]; [6],8 days
"CN[C@H](CC(C)C)C(=O)N[C@H]1C(=O)N[C@@H](CC(N)=O)C(=O)N[C@H]2C(=O)N[C@H]3C(=O)N[C@H](C(=O)N[C@H](C(=O)O)c4cc(O)cc(O)c4-c4cc3ccc4O)[C@H](O[C@H]3C[C@](C)(N)[C@@H](O)[C@H](C)O3)c3ccc(c(Cl)c3)Oc3cc2cc(c3O[C@@H]2O[C@H](CO)[C@@H](O)[C@H](O)[C@H]2O[C@H]2C[C@](C)(NCc3ccc(-c4ccc(Cl)cc4)cc3)[C@@H](O)[C@H](C)O2)Oc2ccc(cc2Cl)[C@H]1O [oritavancin, N-(4-(4-chlorophenyl)benzyl)A82846B]",Recovery of C. difficile spores following exposure,[4],not recovered
same,Longer time for cytotoxin titres to decline to undetectable levels than in vancomycin experiment,[1],5 days
same,C. difficile total counts and spore counts,"[1]; 1 day later (day 3 of instillation) and rest of period E, LOD ~1.22 log10 cfu/mL",below the limits of detection
same,Time to cytotoxin titres below the limits of detection,"[1]; after cessation of instillation, period F",≤ 10 days
same,Decline of C. difficile spore counts,[1]; [7],~2 log10 cfu/mL
same,Decline of C. difficile total counts,[1]; [7],~2 log10 cfu/mL
same,Decline of cytotoxin titres during instillation,[1]; period E,3 RU
same,"Recrudescence of C. difficile spore germination, proliferation and cytotoxin production",[1]; period F,No recrudescence
same,C. difficile isolation after cessation of instillation,"[1]; period F, remainder of the experiment",isolated sporadically at the limits of detection
same,Growth of S. aureus NCTC 6571 on filters through which antibiotic had been filtered,[2],grew
same,Effect of antibiotic-exposed C. difficile spores on growth of Oxford S. aureus,[5],inhibitory to growth
same,Survival longer than animals with equivalent dose and regimen (2×q2d) of vancomycin,[3]; 2 doses 50 mg/kg intravenous,5 days
same,Survival prolonged compared to untreated animals,"[3]; one intravenous dose 50 mg/kg (Day 1), in 10% HPCD",4 days
same,Survival prolonged compared to untreated animals,[3]; [6],7 days
same,Survival prolonged compared to untreated animals,"[3]; two intravenous doses 50 mg/kg q2d (Days 1 and 3), in 10% HPCD",5 days
